Measured values published in patent US9949971B2, “Therapeutic combinations of a BTK inhibitor, a PI3K inhibitor and/or a JAK-2 inhibitor” (Acerta Pharma B.V., priority 2014, dated 2018).

Tests used:
GPVI = GPVI platelet aggregation (Convulxin-induced); assay type: cell-based, human; settings: for inhibition of GPVI platelet aggregation: human platelets, CVX-induced
Experimental: GPVI platelet aggregation was measured for Formula (XVIII) and Formula XX-A (ibrutinib). Blood was obtained from untreated humans, and platelets were purified from […] by centrifugation. Cells were resuspended to a final concentration of 350,000/μL in buffer containing 145 mmol/L NaCl, 10 mmol/L HEPES, 0.5 mmol/L Na2HPO4, 5 mmol/L KCl, 2 mmol/L MgCl2, 1 mmol/L CaCl2, and 0.1% glucose, at pH 7.4. Stock solutions of […] were prepared on the day of experimentation and added to platelet suspensions 5 minutes (37° C., 1200 rpm) before the induction of aggregation. Aggregation was assessed with a Chronolog Lumi-Aggregometer (model 540 VS; Chronolog, Havertown, Pa.) and permitted to proceed for 6 minutes after the addition of agonist. The results are reported as maximum percent change in light transmittance from baseline with platelet buffer used as a reference.
In FIG. 97, the results of CVX-induced (250 ng/mL) human platelet aggregation results before and 15 minutes after administration of the BTK inhibitors to 6 healthy individuals are shown.

NK cells [1] = assay: rituximab ADCC mediated by NK cells; assay type: cell-based
Excerpt: H. E. Kohrt, et al., Blood 2014, 123, 1957-60.

[2] = study of respiratory function (GLP safety pharmacology); settings: rats, doses through 300 mg/kg (the highest dose level)
[3] = tested on: mouse, rat, dog, rabbit, monkey, and human hepatocytes; assay: In vitro metabolism studies in hepatocytes with 14C-labeled compound; assay type: in vitro ADME
EGFR = EGFR (Homo sapiens, UniProt P00533); assay: in vitro EGFR phosphorylation in A431 cells; settings: 10 μM, A431 human epidermoid cancer cell line
[4] = tested on: NK cells and monocytic MDSC subsets; assay: Flow cytometry of peripheral blood cell subsets in CLL patients, predose vs 28 days; assay type: in vivo, human; settings: patients with falling ALC counts; after 28 days of dosing
Experimental: PBMCs were stained with monoclonal antibodies conjugated to fluorescent tags (flourochromes) to identify cell subsets via flow cytometry. Non-viable cells were excluded from the analysis using the dye 7-aminoactinomycin D (7-AAD). To produce the metric of percent change, the following steps were taken. First, each cell subset was defined by hierarchical flow cytometry gating. Then, the change in frequency (between day 1 and day 28) was calculated for each cell subset. MDSC subsets were measured as a % of all myeloid cells. T cell subsets were measured as a % of all CD3^+ cells, and NK cells were measured as a % of all live CD45^+ cells. […] A cycle is 28 days. A trend is observed wherein patients with decreasing ALC % had increasing MDSC (monocytic) %. This may include patients who had quickly resolving lymphocytosis and those with no initial lymphocytosis. […] This may include patients who had quickly resolving lymphocytosis and those having no initial lymphocytosis. The effects in FIG. 107 to FIG. 110 are observed in multiple cohorts, at doses including 100 mg BID, 200 mg QD, and 400 mg QD. In FIG. 111 and FIG. 112, the effects on NK cells and MDSC cells are compared to a number of other markers versus % change in ALC at C1D28 and C2D28. These other markers include CD4+ T cells, CD8+ T cells, CD4+/CD8+ T cell ratio, NK-T cells, PD-1+ CD4+ T cells, and PD-1+ CD8+ T cells. […]

B cell lymphoma = assay: veterinary clinical trial in canine lymphoma; assay type: in vivo, dog; settings: companion dogs with B cell lymphoma
[5] = functional observation battery (GLP safety pharmacology); settings: rats, doses through 300 mg/kg (the highest dose level)
CYP3A4 = CYP3A4 (Homo sapiens, UniProt P08684); assay: In vitro loss of parent drug as catalyzed by CYPs; nonclinical CYP interaction studies; assay type: in vitro ADME
BTK = molecular target: T1, BTK (Mus musculus, UniProt P35991); assay: Molecular probe assay of irreversible BTK occupancy in MDSCs from tumor bearing PDA mice; assay type: in vivo; settings: 15 mg/kg BID, Day 8, 4 hours post dose (N=5)
T1 construct: MDSCs were purified from tumor bearing PDA mice; endogenous in cells; host or cells: granulocytic and monocytic MDSCs from tumor bearing PDA mice
Excerpt: A molecular probe assay was used to calculate the percent irreversible occupancy of total BTK.

[6] = Glutathione binding and depletion in vitro; assay type: in vitro ADME
NK cells [7] = assay: NK cell degranulation/ADCC whole blood assay with obinutuzumab; assay type: cell-based, human; settings: whole blood pretreated 1 hour, MEC-1 cells opsonised with obinutuzumab 1 μg/mL, 4 hours, n=3
Experimental: Degranulation in whole blood was performed as follows. […] Exponentially growing cells were used. On the day of the experiment, 8 mL of blood was drawn from a normal volunteer into a test tube containing desirudin to obtain a final concentration of 50 μg/mL. A white blood cell (WBC) count of whole blood was performed. […] 170 μL aliquots of unmanipulated whole blood were incubated with 10 μL BTK inhibitors or X-VIVO 15 medium for one hour into a plate. […] The samples were placed in a 5% CO2 incubator for 4 hours at 37° C.
After 4 hours, the samples were mixed gently and 50 μL aliquots were removed from each well and placed in fluorescence-activated cell sorting (FACS) test tubes. A 20 μL aliquot of anti-CD56-APC antibody and anti-CD107a-PE antibody was added. The samples were incubated for 20 minutes at room temperature in the dark. An aliquot of 2 mL of FACS lysing solution (BD Biosceinces) was added. The samples were again incubated for 5 minutes, and then centrifuged at 2000 rpm for 5 minutes. Supernatant was discarded and the cell pellet was resuspended in 500 μL of PBS. The samples were analyzed on the flow cytometer for CD107a^+ NK cells (CD56^+).

BCR = assay: in vivo potency: BCR activation markers CD69 and CD86 after IgM stimulation; set-up: species or system mouse; settings: mice gavaged, 3 hours post-dose, BCR stimulated with IgM, flow cytometry
Experimental: Mice were gavaged at increasing drug concentration and sacrificed at one time point (3 hours post-dose). BCR is stimulated with IgM and the expression of activation markers CD69 and CD86 are monitored by flow cytometry to determine EC50values.
CD86 and CD69 are cell surface proteins that are BCR activation markers. […] BCR was stimulated with IgM and the expression of activation marker CD69 and CD86 are monitored by flow cytometry and to determine EC50 values.

[8] = tested on: human platelet-mediated thrombosis; assay: in vivo human thrombus formation in the VWF HA1 mice model (laser injury); settings: human platelets preincubated with BTK inhibitor, laser-induced injury
Experimental: Purified human platelets were preincubated with various concentrations of the BTK inhibitors (0.1 μM, 0.5 μM, or 1 μM) or DMSO and then administered to VWF HA1 mice, followed by laser-induced thrombus formation.
The objective of this study was to evaluate in vivo thrombus formation in the presence of BTK inhibitors.

[9] = tested on: signals through the B cell receptor (CD69 on gated CD19+ B cells); assay: Whole blood inhibition of B cell receptor signals (anti-IgD induced CD69 on CD19+ B cells, flow cytometry); assay type: cell-based; settings: whole blood of four healthy donors, 2 h incubation, anti-human IgD 10 μg/mL 18 h
Experimental: Blood from four healthy donors was incubated for 2 hours with the compounds shown over a concentration range, and then stimulated with anti-human IgD [10 μg/mL] for 18 hours. The mean fluorescent intensity (MFI) of CD69 (and CD86, data not shown) on gated CD19+ B cells was measured by flow cytometry.

[10] = in vivo; cited from earlier work
previously treated CLL = settings: Phase 1, monotherapy; cited from earlier work

CYP3A4, sequence (P08684 whole entry): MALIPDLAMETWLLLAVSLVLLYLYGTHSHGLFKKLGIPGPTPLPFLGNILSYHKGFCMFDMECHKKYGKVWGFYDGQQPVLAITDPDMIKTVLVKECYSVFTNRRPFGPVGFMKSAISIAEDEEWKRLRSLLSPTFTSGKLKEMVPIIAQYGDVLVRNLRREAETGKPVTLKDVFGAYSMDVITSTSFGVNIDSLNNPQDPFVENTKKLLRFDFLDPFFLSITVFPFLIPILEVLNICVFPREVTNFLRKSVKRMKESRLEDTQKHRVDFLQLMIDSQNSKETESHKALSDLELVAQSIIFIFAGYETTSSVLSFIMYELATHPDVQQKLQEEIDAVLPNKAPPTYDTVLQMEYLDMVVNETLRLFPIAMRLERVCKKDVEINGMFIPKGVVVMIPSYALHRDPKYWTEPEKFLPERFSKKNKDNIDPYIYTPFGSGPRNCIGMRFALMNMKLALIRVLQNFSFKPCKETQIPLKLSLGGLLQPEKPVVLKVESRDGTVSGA
EGFR, sequence (P00533 25-1210): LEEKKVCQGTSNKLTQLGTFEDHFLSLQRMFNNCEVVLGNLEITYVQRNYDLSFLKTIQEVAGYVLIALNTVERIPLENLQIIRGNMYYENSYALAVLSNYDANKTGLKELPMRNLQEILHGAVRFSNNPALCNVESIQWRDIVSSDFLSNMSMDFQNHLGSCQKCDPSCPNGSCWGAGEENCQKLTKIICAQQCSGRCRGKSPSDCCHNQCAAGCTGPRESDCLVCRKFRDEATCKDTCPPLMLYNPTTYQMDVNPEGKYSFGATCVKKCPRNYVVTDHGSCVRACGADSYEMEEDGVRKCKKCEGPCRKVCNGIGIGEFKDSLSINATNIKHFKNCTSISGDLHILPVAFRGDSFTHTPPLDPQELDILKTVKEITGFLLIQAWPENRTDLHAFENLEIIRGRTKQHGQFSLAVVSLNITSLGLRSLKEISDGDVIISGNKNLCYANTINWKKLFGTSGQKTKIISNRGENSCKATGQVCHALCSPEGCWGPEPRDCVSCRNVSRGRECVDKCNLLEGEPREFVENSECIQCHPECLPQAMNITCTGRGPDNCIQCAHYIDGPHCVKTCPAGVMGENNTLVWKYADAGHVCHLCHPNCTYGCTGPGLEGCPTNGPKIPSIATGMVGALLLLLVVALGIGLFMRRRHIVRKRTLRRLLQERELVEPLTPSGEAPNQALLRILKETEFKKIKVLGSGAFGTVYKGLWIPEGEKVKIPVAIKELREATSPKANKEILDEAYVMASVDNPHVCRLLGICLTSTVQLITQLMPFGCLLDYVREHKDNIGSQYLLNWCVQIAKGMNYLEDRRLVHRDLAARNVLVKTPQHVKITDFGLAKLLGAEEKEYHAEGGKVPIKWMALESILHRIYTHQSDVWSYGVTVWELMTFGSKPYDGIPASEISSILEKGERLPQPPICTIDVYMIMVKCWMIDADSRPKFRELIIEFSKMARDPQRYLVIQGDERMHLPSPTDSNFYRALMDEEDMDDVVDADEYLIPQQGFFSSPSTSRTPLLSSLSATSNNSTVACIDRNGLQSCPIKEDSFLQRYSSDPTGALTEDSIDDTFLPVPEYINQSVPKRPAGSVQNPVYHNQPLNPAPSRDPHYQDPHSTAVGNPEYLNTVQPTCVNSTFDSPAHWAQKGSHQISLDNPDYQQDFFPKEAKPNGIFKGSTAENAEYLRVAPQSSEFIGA
T1 sequence (P35991 whole entry): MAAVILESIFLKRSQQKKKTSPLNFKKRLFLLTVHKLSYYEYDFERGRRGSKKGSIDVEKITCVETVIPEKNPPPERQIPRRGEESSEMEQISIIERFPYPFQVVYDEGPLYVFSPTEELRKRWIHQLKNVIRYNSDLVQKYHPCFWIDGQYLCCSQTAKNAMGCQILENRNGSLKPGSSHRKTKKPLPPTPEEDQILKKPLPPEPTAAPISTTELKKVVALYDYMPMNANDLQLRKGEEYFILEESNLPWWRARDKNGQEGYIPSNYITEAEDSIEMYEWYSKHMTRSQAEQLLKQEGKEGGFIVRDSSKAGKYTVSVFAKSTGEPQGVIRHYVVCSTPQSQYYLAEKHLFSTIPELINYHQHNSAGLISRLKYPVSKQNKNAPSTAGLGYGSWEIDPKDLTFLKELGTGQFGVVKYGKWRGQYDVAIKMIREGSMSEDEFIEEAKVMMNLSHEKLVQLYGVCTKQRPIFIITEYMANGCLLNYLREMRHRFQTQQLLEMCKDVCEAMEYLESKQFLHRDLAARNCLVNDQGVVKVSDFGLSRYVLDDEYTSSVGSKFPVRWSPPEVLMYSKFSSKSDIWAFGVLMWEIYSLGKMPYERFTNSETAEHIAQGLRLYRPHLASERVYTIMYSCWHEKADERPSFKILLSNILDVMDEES

C=CC(=O)N1CCC[C@@H](n2nc(-c3ccc(Oc4ccccc4)cc3)c3c(N)ncnc32)C1 [ibrutinib, 1-[(3R)-3-[4-amino-3-(4-phenoxyphenyl)-1H-pyrazolo[3,4-d]pyrimidin-1-yl]piperidin-1-yl]prop-2-en-1-one]
inhibition of GPVI platelet aggregation (GPVI): significantly inhibits GPVI platelet aggregation | antagonism of rituximab ADCC effects mediated by NK cells (NK cells [1]): undesirably antagonizes rituximab ADCC effects

CC#CC(=O)N1CCC[C@H]1c1nc(-c2ccc(C(=O)Nc3ccccn3)cc2)c2c(N)nccn12 [Formula (XVIII), (S)-4-(8-amino-3-(1-(but-2-ynoyl)pyrrolidin-2-yl)imidazo[1,5-a]pyrazin-1-yl)-N-(pyridin-2-yl)benzamide]
respiratory function [2]: no treatment-related adverse effects | Metabolites formed in hepatocytes ([3]; 14C-labeled compound, mouse, rat, dog, rabbit, monkey, human hepatocytes): two mono-oxidized metabolites and a glutathione conjugate | Unique human metabolite ([3]; hepatocytes): No unique human metabolite was identified | inhibition of in vitro EGFR phosphorylation (EGFR): no inhibition | NK cells and monocytic MDSC subsets in peripheral blood [4]: increase in frequency | complete responses (CR) (B cell lymphoma): not observed | neurobehavioral effects or body temperature [5]: no adverse effects | Metabolism by CYPs (loss of parent drug) (CYP3A4; in vitro): metabolized by CYP3A4 | Potential for clinical drug-drug interactions through CYP substrates (CYP3A4; nonclinical CYP interaction studies): very unlikely to cause clinical drug-drug interactions | Irreversible occupancy of total BTK in granulocytic and monocytic MDSCs (BTK): Complete BTK occupancy | Glutathione binding / depletion [6]: binds to glutathione but does not deplete glutathione | effect on percentage of CD56+/CD107a+ NK cells (obinutuzumab-stimulated NK cell degranulation) (NK cells [7]): minimal effect | in vivo potency at inhibiting expression of activation markers CD69 and CD86, versus ibrutinib (BCR): more potent | IC50 (GPVI; Platelet, purified human platelets, Convulxin (CVX)): 1.15 µM | inhibition of GPVI platelet aggregation (GPVI): does not | antagonism of rituximab ADCC effects mediated by NK cells (NK cells [1]): does not antagonize rituximab ADCC effects

C=CC(=O)Nc1cccc(Nc2nc(Nc3ccc(OCCOC)cc3)ncc2F)c1 [Formula (XXVII), N-(3-((5-fluoro-2-((4-(2-methoxyethoxy)phenyl)amino)pyrimidin-4-yl)amino)phenyl)acrylamide]
effect on human platelet-mediated thrombus formation [8]: effect similar to Formula XX-A (ibrutinib)

C=CC(=O)Nc1cccc(Nc2nc(Nc3ccc(OCCOC)cc3)ncc2F)c1 [CC-292]
EC50 [9]: 0.121 µM

obinutuzumab: type II glycoengineered CD20 monoclonal antibody
Grade 3 IRRs [10]: 15% | Grade 3 reactions among hypotension cases [10]: 25% | Grade 4 IRRs [10]: no Grade 4 | IRR cases developing symptoms of hypotension [10]: 60% | Patients developing IRR [10]: 95% | Patients experiencing IRRs [10]: all patients | Patients experiencing all grade AE [10]: 100% | MRD-negative complete response, number (previously treated CLL): 1 | Response rate (previously treated CLL): 62%
